This assay deals with L1210 leukemia ip in BDF1 mice, survival T/C. Briefly: NCI In Vivo Anticancer Drug Screen. Data for tumor model L1210 Leukemia (intraperitoneal) in B6D2F1 (BDF1) mice. As to conditions: endpoint: mean survival time, higher = longer survival. Summed up:
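Tumor was transplanted into mice, which were then dosed with test compound or vehicle alone. Survival was recorded for each group, and the treated figure was expressed relative to the control figure.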

[1] abbreviates: dose: 200.0 mg/kg/injection, schedule: Q04DX003 (ip), vehicle: saline with Tween-80.
[2] abbreviates: dose: 75.0 mg/kg/injection, schedule: Q01DX001 (ip), vehicle: saline.
Setting [3] is: dose: 25.0 mg/kg/injection, schedule: Q01DX009 (ip), vehicle: saline.
Setting [4] is: dose: 50.0 mg/kg/injection, schedule: Q01DX009 (ip), vehicle: saline.
Setting [5] is: dose: 100.0 mg/kg/injection, schedule: Q04DX003 (ip), vehicle: saline.
The mark [6] stands for this setting: dose: 100.0 mg/kg/injection, schedule: Q01DX001 (ip), vehicle: saline.
The mark [7] stands for this setting: dose: 200.0 mg/kg/injection, schedule: Q01DX001 (ip), vehicle: saline.
The mark [8] stands for this setting: dose: 50.0 mg/kg/injection, schedule: Q01DX009 (ip), vehicle: saline with Tween-80.
[9] abbreviates: dose: 100.0 mg/kg/injection, schedule: Q01DX009 (ip), vehicle: saline with Tween-80.
[10] abbreviates: dose: 200.0 mg/kg/injection, schedule: Q01DX009 (ip), vehicle: saline with Tween-80.
[11] abbreviates: dose: 100.0 mg/kg/injection, schedule: Q01DX009 (ip), vehicle: saline.

In PubChem BioAssay AID248 (DTP/NCI, 2004) one finds T/C data, which are given here for 18 compounds.

Several values for one entry are separate records, joined by “and”; a condition that tells them apart may be missing. Equal values may be shown once. Toxic doses and inconclusive results are not listed.

With `CC(=O)OCCn1c2ccccc2c2c(C)c3cnccc3c(C)c21`, the T/C reads like this: (dose: 37.5 mg/kg/injection, schedule: Q04DX003 (ip), vehicle: saline) 115 % of control; (dose: 150.0 mg/kg/injection, schedule: Q04DX003 (ip), vehicle: saline) 154 % of control; under setting [1], 108 % of control; (dose: 300.0 mg/kg/injection, schedule: Q04DX003 (ip), vehicle: saline with Tween-80) 102 % of control; (dose: 300.0 mg/kg/injection, schedule: Q04DX003 (ip), vehicle: saline) 290 % of control.
As for `O=C(NOCc1cscn1)NC1CCCCC1`, the T/C under setting [2] is 98 % of control.
`COc1ccc2nccc(/C=C/CC3CCN(C(C)=O)CC3)c2c1`: the T/C was 98 % of control (dose: 12.5 mg/kg/injection, schedule: Q01DX009 (ip), vehicle: saline); 103 % of control (dose: 12.5 mg/kg/injection, schedule: Q04DX003 (ip), vehicle: Klucel (hydroxypropylcellulose) (HPC)); 96 % of control under setting [3]; 107 % of control (dose: 25.0 mg/kg/injection, schedule: Q04DX003 (ip), vehicle: Klucel (hydroxypropylcellulose) (HPC)); 101 % of control under setting [4]; 103 % of control (dose: 50.0 mg/kg/injection, schedule: Q04DX003 (ip), vehicle: Klucel (hydroxypropylcellulose) (HPC)). For the same compound, under setting [5], the T/C is 102 % of control.
In the case of `CC(=O)OCC1OC(N2CCc3cc([N+](=O)[O-])ccc32)C(OC(C)=O)C(OC(C)=O)C1OC(C)=O` (stereo not given), the T/C runs as follows: (dose: 50.0 mg/kg/injection, schedule: Q01DX001 (ip), vehicle: saline) 97 % of control; under setting [6], 96 % of control; under setting [7], 96 % of control.
For `CCOC(=O)COC(CN)C(Cl)(Cl)Cl` (stereo not given), the T/C under setting [8] was 93 % of control, the T/C under setting [9] is 90 % of control and the T/C under setting [10] was 90 % of control.
Regarding `CC(C)N1CN(C(C)C)CN(C(C)C)C1`, the T/C is, setting by setting: under setting [3], 103 % of control; (dose: 25.0 mg/kg/injection, schedule: Q04DX003 (ip), vehicle: saline) 99 % of control; under setting [4], 93 % of control; (dose: 50.0 mg/kg/injection, schedule: Q04DX003 (ip), vehicle: saline) 99 % of control; under setting [5], 87 % of control.
For the compound `CCCCCN(CCCCC)C(=O)c1ccc([N+](=O)[O-])cc1`, the T/C runs as follows: (dose: 100.0 mg/kg/injection, schedule: Q01DX009 (ip), vehicle: Klucel (hydroxypropylcellulose) (HPC)) 97 % of control; (dose: 100.0 mg/kg/injection, schedule: Q04DX003 (ip), vehicle: Klucel (hydroxypropylcellulose) (HPC)) 100 % of control; (dose: 200.0 mg/kg/injection, schedule: Q01DX009 (ip), vehicle: Klucel (hydroxypropylcellulose) (HPC)) 97 % of control; (dose: 200.0 mg/kg/injection, schedule: Q04DX003 (ip), vehicle: Klucel (hydroxypropylcellulose) (HPC)) 96 % of control; (dose: 400.0 mg/kg/injection, schedule: Q01DX009 (ip), vehicle: Klucel (hydroxypropylcellulose) (HPC)) 94 % of control; (dose: 400.0 mg/kg/injection, schedule: Q04DX003 (ip), vehicle: Klucel (hydroxypropylcellulose) (HPC)) 105 % of control.
`Cc1nnc2ccnn2c1C`: the T/C was 96 % of control under setting [6]; 96 % of control under setting [7]; 100 % of control (dose: 400.0 mg/kg/injection, schedule: Q01DX001 (ip), vehicle: saline).
Turning to `Cc1ccccc1OCC(=O)O`, the T/C by setting is: under setting [8], 107 % of control; under setting [4], 107 % of control; under setting [9], 98 % of control; under setting [11], 98 % of control; (dose: 100.0 mg/kg/injection, schedule: Q04DX003 (ip), vehicle: gum acacia) 98 % of control; under setting [10], 98 % of control. The T/C by setting is: (dose: 200.0 mg/kg/injection, schedule: Q01DX009 (ip), vehicle: saline) 98 % of control; (dose: 200.0 mg/kg/injection, schedule: Q04DX003 (ip), vehicle: gum acacia) 94 % of control; (dose: 400.0 mg/kg/injection, schedule: Q04DX003 (ip), vehicle: gum acacia) 93 % of control.
For `CC(=O)c1ccccc1C(C)c1ccc2cccc(F)c2c1` (stereo not given), the T/C by setting is: (dose: 75.0 mg/kg/injection, schedule: Q01DX001 (ip), vehicle: Klucel (hydroxypropylcellulose) (HPC)) 96 % of control; (dose: 150.0 mg/kg/injection, schedule: Q01DX001 (ip), vehicle: Klucel (hydroxypropylcellulose) (HPC)) 100 % of control; (dose: 300.0 mg/kg/injection, schedule: Q01DX001 (ip), vehicle: Klucel (hydroxypropylcellulose) (HPC)) 102 % of control.
With `C=CCC(=O)OCC`, the T/C runs as follows: (dose: 222.0 mg/kg/injection, schedule: Q01DX Z (ip), vehicle: saline) 94 % of control; (dose: 333.0 mg/kg/injection, schedule: Q01DX Z (ip), vehicle: saline) 108 % of control; (dose: 500.0 mg/kg/injection, schedule: Q01DX Z (ip), vehicle: saline) 94 % of control.
As for `C=CC[P+](Cc1ccccc1)(c1ccccc1)c1ccccc1`, the T/C is, setting by setting: (dose: 3.13 mg/kg/injection, schedule: Q01DX009 (ip), vehicle: saline with Tween-80) 98 % of control; (dose: 6.25 mg/kg/injection, schedule: Q01DX009 (ip), vehicle: saline with Tween-80) 107 % of control; (dose: 12.5 mg/kg/injection, schedule: Q01DX009 (ip), vehicle: saline with Tween-80) 104 % of control and 115 % of control.
On to `O=C1OC(c2ccc([N+](=O)[O-])cc2)=N/C1=C\c1ccc2c(c1)OCO2`, for which the T/C by setting is: (dose: 100.0 mg/kg/injection, schedule: Q04DX002 (ip), vehicle: saline with Tween-80) 92 % of control; (dose: 400.0 mg/kg/injection, schedule: Q04DX002 (ip), vehicle: saline with Tween-80) 87 % of control.
With `O=C(O)c1ccc(NCc2cccc(NCCCc3ccccc3)c2)cc1`, the T/C (dose: 100.0 mg/kg/injection, schedule: Q01DX001 (ip), vehicle: saline with Tween-80) was 92 % of control; the T/C (dose: 200.0 mg/kg/injection, schedule: Q01DX001 (ip), vehicle: saline with Tween-80) is 92 % of control; the T/C (dose: 400.0 mg/kg/injection, schedule: Q01DX001 (ip), vehicle: saline with Tween-80) was 93 % of control.
Consider `O=C(Nc1ccc(NC(=O)c2ccc(C3=NCCCN3)cc2)cc1)Nc1ccc(C2=NCCCN2)cc1`, for which the T/C (dose: 0.62 mg/kg/injection, schedule: Q01DX Z (ip), vehicle: carboxymethylcellulose (CMC)) is 103 % of control; the T/C (dose: 1.25 mg/kg/injection, schedule: Q01DX Z (ip), vehicle: carboxymethylcellulose (CMC)) was 110 % of control; the T/C (dose: 2.5 mg/kg/injection, schedule: Q01DX Z (ip), vehicle: carboxymethylcellulose (CMC)) was 105 % of control; the T/C (dose: 5.0 mg/kg/injection, schedule: Q01DX Z (ip), vehicle: carboxymethylcellulose (CMC)) is 174 % of control; the T/C (dose: 6.0 mg/kg/injection, schedule: Q01DX Z (ip), vehicle: carboxymethylcellulose (CMC)) was 153 % of control; the T/C (dose: 8.0 mg/kg/injection, schedule: Q01DX Z (ip), vehicle: carboxymethylcellulose (CMC)) was 185 % of control. The T/C by setting is: (dose: 21.0 mg/kg/injection, schedule: Q01DX Z (ip), vehicle: carboxymethylcellulose (CMC)) 113 % of control; (dose: 62.0 mg/kg/injection, schedule: Q01DX Z (oral), vehicle: carboxymethylcellulose (CMC)) 91 % of control; (dose: 125.0 mg/kg/injection, schedule: Q01DX Z (oral), vehicle: carboxymethylcellulose (CMC)) 102 % of control; (dose: 250.0 mg/kg/injection, schedule: Q01DX Z (oral), vehicle: carboxymethylcellulose (CMC)) 98 % of control; (dose: 500.0 mg/kg/injection, schedule: Q01DX Z (oral), vehicle: carboxymethylcellulose (CMC)) 100 % of control.
Take `NC(CSCc1ccccc1)CSCc1ccccc1`: the T/C by setting is: under setting [3], 101 % of control; under setting [4], 100 % of control; under setting [11], 105 % of control.
Regarding `CCN(CC)CCOC(=O)C(c1ccccc1)C1C=CCCC1` (stereo not given), the T/C reads like this: under setting [2], 102 % of control; (dose: 150.0 mg/kg/injection, schedule: Q01DX001 (ip), vehicle: saline) 92 % of control.
For `Clc1ccc(/C=C/c2nccc(Cl)n2)cc1`, the T/C runs as follows: (dose: 100.0 mg/kg/injection, schedule: Q04DX003 (ip), vehicle: saline with Tween-80) 106 % of control; under setting [1], 106 % of control; (dose: 400.0 mg/kg/injection, schedule: Q04DX003 (ip), vehicle: saline with Tween-80) 106 % of control.
